Reference: patent US20240016795A1, “BROMODOMAIN INHIBITORS FOR ANDROGEN RECEPTOR-DRIVEN CANCERS” (FORMA Therapeutics, Inc., priority 2020, published 2024)
Values joined by “and” are separate entries in the source; they are usually repeats but may differ in a detail not shown here. Equal values may be shown once. Read-outs that look alike come from different tables or passages of the source.

Columns and labels:
[1] = tested on: panel of 10 BRD representing the various branches of the bromodomain tree; test: AlphaScreen panel of 10 bromodomains; format: binding
[2] = tested on: MYC; test: qPCR gene expression in VCaP, MYC; format: cell-based; conditions: Homo sapiens, 24 h
Description: (§1) RNA was extracted using Qiacube RNAeasy Mini (Qiagen). For all genes tested, the qPCR reactions were carried out in triplicate with 250 ng RNA per reaction and Taqman® primer-probes. GAPDH was used as a housekeeping gene.

[3] = tested on: TMPRSS2; test: Taqman gene expression in AR-positive breast cancer cells, TMPRSS2; format: cell-based; conditions: 24 hours, read-out: IC50, TMPRSS2 mRNA
Description: AR-positive breast cancer cells were exposed to increasing concentrations of compounds for 24 hours. RNA was extracted and gene expression measured using Taqman® assays for TMPRSS2 and XBP1.

[4] = tested on: MYC; test: qPCR gene expression in AR-v7+ prostate cancer cells, MYC; format: cell-based; conditions: 24 h
Description: AR-v7+ prostate cancer cells were exposed to compounds 1, 2, 3, or 4 for 24 h. RNA was extracted and gene expression was measured by qPCR using Taqman® primer-probes. GAPDH was used as a housekeeping gene.

[5] = tested on: AR; test: AR protein level by western blot in prostate cancer cells; format: cell-based
[6] = tested on: patient-derived xenograft (PDX) model of AR+ prostate cancer sensitive to enzalutamide; test: Patient-derived xenograft of prostate cancer sensitive to enzalutamide; format: in vivo, NOG mice; conditions: Compound 1 40 mg/kg/day, enzalutamide 20 mg/kg/day
Description: The antitumor activity was determined based by tumor volume during the course of the study.
Male NOG mice (6-8 weeks of age) were implanted with tumor fragments. When tumors reached an average tumor volume of 150-200 mm^3 animals were randomized into different cohort groups and dosing initiated on the same day (Day 0). Animals were weighed twice weekly.
[…] 11.

[7] = target: p300 bromodomain (Homo sapiens (Human), UniProt Q09472); test: Time-resolved fluorescence biochemical assay, p300; format: binding; conditions: GST fusion of the p300 bromodomain
p300 bromodomain, sequence (Q09472 1049-1156): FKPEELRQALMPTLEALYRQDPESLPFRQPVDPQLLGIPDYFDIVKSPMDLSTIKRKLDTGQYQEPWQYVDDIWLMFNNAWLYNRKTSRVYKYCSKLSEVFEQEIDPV
Text: Data is fitted using the Levenburg Marquardt algorithm. […] Data is fitted using the Levenburg Marquardt algorithm.

[8] = tested on: AR+ prostate cancer cell lines (LnCaP, VCaP, 22Rv1); test: 10-day proliferation assay, all AR+ prostate cancer cell lines; format: cell-based; conditions: 240 h; 10-day assay; read-out: growth inhibitory effect (IC50), all AR+ cell lines
Description: Two AR-negative prostate cancer cell lines DU145 and PC-3 were also evaluated.
(§2) Prostate cell lines were obtained from ATCC or DSMZ and cultured according to the distributor's recommendations. Prostate cancer cells were plated and incubated overnight. […] Cell viability was assessed using a CellTiter-Glo® assay (Promega) after 10 days drug exposure. The growth inhibitory effect was assessed by the concentration inhibiting growth by 50% using a nonlinear regression equation and a variable slope (Graphpad Prism).

[9] = tested on: SPDEF; test: qPCR gene expression in VCaP, SPDEF; format: cell-based; conditions: Homo sapiens, 24 h
Description: as §1

[10] = tested on: HCC1500; test: 10-day CellTiter-Glo antiproliferative assay, HCC1500; format: cell-based; conditions: HCC1500, 240 h, 10-day exposure, AR High, ER +, Her2 −
Description: (§3) Breast cell lines were cultured according to the distributor's recommendations. The following day, cells were exposed to compounds up to 10 days. Cell viability was assessed using a CellTiter-Glo® assay (Promega) at the end of the incubation period. The growth inhibitory effect was assessed by the concentration inhibiting growth by 50% using a nonlinear regression equation and a variable slope (Graphpad Prism). The mRNA expression levels for the androgen receptor (HUGO: AR) was determined from the DepMap Portal database (release 19Q2).

[11] = tested on: LNCaP; test: 10-day prostate cancer cell proliferation assay, LNCaP; format: cell-based; conditions: Homo sapiens, LNCaP, 240 h; 10 days exposure; T878A/WT, androgen-dependent
Description: as §2

[12] = tested on: AR target genes; test: Reduction of AR target genes in VCaP cells; format: cell-based; conditions: Homo sapiens, 24 hr exposure
Description: as §1

[13] = tested on: MYC; test: qPCR gene expression in 22Rv1, MYC; format: cell-based; conditions: Homo sapiens, 22Rv1, 24 h
Description: as §1

[14] = tested on: PC-3; test: 10-day prostate cancer cell proliferation assay, PC-3; format: cell-based; conditions: Homo sapiens, PC-3, 240 h; 10 days exposure; AR negative
Description: as §2

[15] = tested on: 22Rv1; test: 10-day prostate cancer cell proliferation assay, 22Rv1; format: cell-based; conditions: Homo sapiens, 22Rv1, 240 h
Description: as §2

[16] = tested on: CAL148; test: 10-day CellTiter-Glo antiproliferative assay, CAL148; format: cell-based; conditions: Homo sapiens, CAL-148, 240 h, 10-day exposure, AR Low, ER −, Her2 −
Description: as §3

[17] = tested on: SPDEF; test: qPCR gene expression in 22Rv1, SPDEF; format: cell-based; conditions: Homo sapiens, 22Rv1, 24 h
Description: as §1

[18] = tested on: KLK3 (PSA); test: qPCR gene expression in VCaP, KLK3 (PSA); format: cell-based; conditions: Homo sapiens, 24 h
Description: as §1

[19] = tested on: H3K27Ac; test: H3K27Ac western blot in MDA-MB-453 cells; format: cell-based; conditions: MDA-MB-453, 24 hrs, western blot
Description: H3K27Ac is a specific mark of CBP/p300 activity and thus offers a means to directly assess the impact of CBP/p300 inhibition in cells.
MDA-MB-453 cells were plated overnight and exposed to the compounds for 24 hours. Lysates were prepared from the cells in E-PAGE loading buffer (Invitrogen) and analyzed by western blot with antibodies diluted 1:1000 for anti-H3K27Ac, 1:2000 for anti-total H3 and 1:10,000 for anti-β actin. The blots were scanned and analyzed on a LI-COR Odyssey image analyzer. H3K27Ac levels were normalized to β-Actin.
Finally, a washout experiments was carried out with compound 4 to assess the recovery of the biomarker after removal of the compound. […] Lysates were prepared and analyzed by western blot, as described above.

[20] = tested on: KLK3 (PSA); test: qPCR gene expression in 22Rv1, KLK3 (PSA); format: cell-based; conditions: Homo sapiens, 22Rv1, 24 h
Description: as §1

COC(=O)N1c2ccc3c(nc([C@H](O)c4cc(F)ccc4OC)n3[C@@H]3CCC[C@@H](C(=O)O)C3)c2CC[C@@H]1C [Compound 1, (1R,3R)-3-[(7S)-2-[(R)-(5-fluoro-2-methoxyphenyl)(hydroxy)methyl]-6-(methoxycarbonyl)-7-methyl-3H,6H,7H,8H,9H-imidazo[4,5-f]quinolin-3-yl]cyclohexane-1-carboxylic acid]
activity against panel of bromodomains [1]: inactive against 8
IC50 ([1]; read-out: IC50 in multiple assays of the panel of 10 bromodomains): > 10000 nM
IC50 [2]: 0.05 to 0.1 µM
IC50 [3]: < 100 nM
IC50 [4]: > 100 nM
return of AR to baseline level following removal of compound ([5]; 22Rv1, after a 24 hr exposure): ≤ 24 h
AR protein level ([5]; androgen-independent and androgen-dependent prostate cancer cell lines, western blot): dose dependent reduction
AR target gene SPDEF expression in tumor ([6]; four days): reduced
H3K27Ac in tumor ([6]; four days): reduction of H3K27Ac
TGI at the end of study ([6]; start of dosing to day 59): comparable
IC50 [7]: < 2 nM and ~1 nM
IC50 [8]: 500 to 1500 nM
IC50 [9]: > 0.1 µM
IC50 [10]: 0.5 to 1 µM
IC50 [11]: > 1000 nM
IC50 [12]: < 500 nM
IC50 [13]: > 0.1 µM
IC50 [14]: > 1000 nM
IC50 ([15]; 10-day assay, read-out: anti-proliferative effect (IC50), 22Rv1): 500 to 1000 nM
IC50 ([15]; 10 days exposure, H857Y/H857Y, AR v7+, androgen-independent, read-out: IC50, 22Rv1): 500 to 1000 nM
IC50 [16]: > 1 µM
IC50 [17]: > 0.1 µM
IC50 [18]: 0.01 to 0.05 µM
H3K27Ac level [19]: concentration dependent reduction
IC50 [20]: 0.01 to 0.05 µM
